Data from US9579358B2, “Compositions for binding to amyloid proteins” (LANCASTER UNIVERSITY BUSINESS ENTERPRISES LIMITED, priority 2011, dated 2017).
One block for each molecule: values may come before it. Non-standard residues stand in square brackets, D forms with d. Residues, ends and D or L forms follow the SMILES beside them. No end group written: not given here.

Columns and labels:
Aβ42 = target: T1, Aβ42 (Homo sapiens, UniProt P05067); experiment: Sandwich immunoassay (6E10) for Aβ oligomers; format: biochemical; details: 2:1 and 1:1 molar ratios of inhibitor:Aβ42; from 4 and 8 h
T1 construct: Recombinant Aβ42, Ultrapure, was purchased from rPeptide, Bogart, Ga., USA; purchased rPeptide, Bogart, Ga., USA
Description: These inhibitors were also tested in an immunoassay technique for the detection of early-stage Aβ oligomers. This assay uses monoclonal anti-Aβ antibody 6E10 to capture Aβ from solution and a biotinylated form of 6E10 as the detection antibody, in a sandwich system. Monomeric Aβ has only a single 6E10 epitope, which is occupied by the capture antibody, and so it cannot subsequently bind to the detection antibody. On the other hand, multimeric Aβ has binding sites available for both capture and detection, giving rise to a strong immunoassay signal. In Aβ aggregation time-course experiments, this assay produces a signal before the ThT method, when only small oligomers are present.
The sandwich immunoassay used follows the method described previously by Taylor et al (28, 30). Briefly, 96-well ELISA plates (Maxisorb) were coated with mouse monoclonal antibody 6E10 diluted 1:1000 in assay buffer (Tris-buffered saline (TBS), pH 7.4, containing 0.05% gamma globulins and 0.005% Tween 20). […] Enhancer solution was added and the plates were read using the time-resolved fluorescence setting for europium on a Wallac Victor 2 plate reader.
This is a more sensitive test than the ThT assay for the detection of early oligomeric forms of Aβ [28]. […] Enhancer solution was added and the plates were read on a Wallac Victor 2 plate reader, using the time-resolved fluorescence setting for europium.

APP/PS1 transgenic mice = experiment: Brain pathology after 21 days of treatment; format: in vivo; details: 100 nMol/kg i.p. once daily
Excerpt: APPswe/PS1ΔE9 mice with a C57Bl/6 background (APP/PS1 mice) were obtained from the Jackson lab (http://research.iax.org/repository/alzheimers.html). To determine if Flu-RI-OR2-TAT crosses the blood brain barrier (Example 4), 2 male 17-months-old APP/PS1 animals and 2 16-months-old C57BL6 animals were used. To look at the effects of RI-OR2-TAT on mouse brain pathology (Example 5), 8 female 10-months-old APP/PS1 mice were used. The animals were housed in single cages in a temperature controlled holding room (21.5° C.±1) with 12:12 h light and dark cycle. Food and water was available ad libitum.
For Example 5, 4 animals were injected intraperitonially (i.p.) with 0.9% NaCl (vehicle control) and the other 4 with RI-OR2-TAT (100 nMol/Kg in 0.9% NaCl) once daily, for 21 days. On the 22nd day, the animals were perfused transcardially with ice-cold PBS and 4% paraformaldehyde and then the brains were removed and post-fixed in 4% ice cold paraformaldehyde.
All brains in paraformaldehyde were transferred to 30% sucrose overnight and then snap frozen with Envirofreez™ (Sigma, UK) and, using a Leica cryostat, 40 microns thick coronal sections were cut at anatomical regions of −2 to −3 bregma. Sections were preserved in cryoprotect with the first section taken at random and then every 5th section afterwards.
For Example 5, to stain for activated microglia, an inflammation response marker, sections were pretreated with 0.05 M sodium citrate buffer, pH 9, and incubated at 90° C. for 30 mins and stained with anti Iba-1 (1:2000 dilution, Wako 016-20001, Germany). For the oxidative stress marker, DNA denaturation was carried out with 2N HCl and the sections were stained for 8-oxo guanine (1:200 dilution, MAB3560, Millipore). Young immature neurons were detected by immunostaining for doublecortin (1:200 dilution, sc-66911, Santa Cruz Biotechnology). Total plaque load was quantified by immunostaining for β-amyloid (1:200 dilution, Invitrogen, 71-5800).
All sections were visualized using an Axio Scope 1 fluorescence microscope (Zeiss, Germany). For quantification, two images per section were taken from the cortex area with a 10× objective for 8-oxo guanine and β-amyloid staining, and a 100× objective for Iba1 staining, with a minimum of 5 sections visualized per animal. Image analysis was performed using multi threshold plug in Image J (NIH, USA).
Human oligomerised Aβ was measured using a kit purchased from Invitrogen, according to the manufacturer's instructions. Briefly, the right hemispheres from the brains of transgenic APP/PS1 mice treated with RI-OR2-TAT, or controls, were pooled separately and homogenized. Quantification of total protein was determined using the Bradford protein assay and was measured on a Nanophotometer (Implen, Germany). The homogenates were centrifuged at 100,000 g at 4° C. for 1 h. The supernatant was then diluted 1:10 before carrying out the sandwich ELISA, which measures soluble Aβ oligomer levels, but not amyloid monomers, as detailed in the manufacturer's protocol. The final AR oligomer values were determined following normalization of total protein levels.

SHSY-5Y cells = experiment: MTT cell viability assay, protection from pre-aggregated Aβ1-42; format: cell-based; details: for Absorption units (560 nm): control with Abeta 2.467, no Abeta 3.608
Description: SHSY 5Y cells were grown and maintained in DMEM (Dulbecco's Modified Eagle Medium) supplemented with FBS under standard mammalian cell culture conditions. During treatment cells were kept in Optimem plus or minus peptide liposomes in 96 well plates at 20000 cells per well for 24 hours, again under standard culture conditions. For cell protection assays 5 μM of pre-aggregated Aβ1-42 was added at the same time as peptide liposomes. Cell viability was assessed for four wells for each treatment using a Promega CellTiter assay kit.

T1 sequence (P05067 672-713 limits assumed): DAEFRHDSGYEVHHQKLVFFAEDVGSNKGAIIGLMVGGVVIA

development of immunoassay signal (oligomer formation) (Aβ42): considerably reduced
Molecule: CC(=O)N[C@H](CCCNC(=N)N)C(=O)NCC(=O)N[C@H](Cc1ccccc1)C(=O)N[C@H](Cc1ccccc1)C(=O)N[C@@H](C(=O)N[C@H](CC(C)C)C(=O)N[C@H](CCCCN)C(=O)NCC(=O)N[C@H](CCCNC(=N)N)C(=O)N[C@H](CCCNC(=N)N)C(=O)N[C@H](CCCNC(=N)N)C(=O)N[C@H](CCCNC(=N)N)C(=O)N[C@H](CCC(N)=O)C(=O)N[C@H](CCCNC(=N)N)C(=O)N[C@H](CCCNC(=N)N)C(=O)N[C@H](CCCCN)C(=O)N[C@H](CCCCN)C(=O)N[C@H](CCCNC(=N)N)C(=O)NCC(=O)N[C@H](Cc1ccc(O)cc1)C(N)=O)C(C)C [RI-OR2-TAT, Ac-rGffvlkGrrrrqrrkkrGy-NH2] (Ac-[dR]G[dF][dF][dV][dL][dK]G[dR][dR][dR][dR][dQ][dR][dR][dK][dK][dR]G[dY]-NH2)
increase of mean number of young doublecortin-expressing neurons in the dentate region (APP/PS1 transgenic mice): 210%
reduction of cortical level of 8-oxo-guanine immunostaining (APP/PS1 transgenic mice): 25%
reduction of number of activated microglia in the cortex (APP/PS1 transgenic mice; Iba1 immunostaining): 44%
reduction of soluble Aβ oligomer levels in the brain (APP/PS1 transgenic mice; sandwich ELISA): 25%
reduction of amyloid plaque load in the cortex (APP/PS1 transgenic mice; versus saline, β-amyloid immunostaining): 32%

Molecule: PINPs: RI-OR2-TAT covalently attached to nanoliposomes (cholesterol:sphingomyelin [1:1] with 2.5% maleimide) via an additional cysteine (Ac-[dR]G[dF][dF][dV][dL][dK]G[dR][dR][dR][dR][dQ][dR][dR][dK][dK][dR]G[dY][dC]; not fully specified (residue 21); also: C-terminal D-Cys coupled via its thiol to maleimide lipid of nanoliposome)
Absorption units (560 nm) (SHSY-5Y cells; PINPs 0.01 μM plus 5 μM pre-aggregated Aβ1-42): 3.370 Absorption units
Absorption units (560 nm) (SHSY-5Y cells; PINPs 0.1 μM plus 5 μM pre-aggregated Aβ1-42): 3.478 Absorption units
Absorption units (560 nm) (SHSY-5Y cells; PINPs 1 μM plus 5 μM pre-aggregated Aβ1-42): 3.252 Absorption units
Absorption units (560 nm) (SHSY-5Y cells; PINPs 10 μM plus 5 μM pre-aggregated Aβ1-42): 3.538 Absorption units
cell viability in the presence of pre-aggregated Aβ1-42 (SHSY-5Y cells; PINPs at 10, 1, 0.1, 0.01 μM): cell viability remained near that of untreated cells
